The record followed here is a melting point compilation (Tetko et al.; mined from patent text by program, amines drawn as free bases though some values may be those of a salt).

With `CC(C)c1cccc(C(C)C)c1NC(=O)N(Cc1ccccc1)CC1(c2ncccn2)CCCCC1`, the melting point – broadly, the temperature, or range, at which the solid turns liquid – fell in the range of 112 to 114 °C.
In turn, `O=C(O)Cn1cc(Cc2nc3c(F)c(F)cc(F)c3s2)c2ccc(F)cc21` had a melting point of 200 to 203 °C.
As to `N#CC(C#N)(CC=C(Br)Br)Cc1ccc(OC(F)(F)F)cc1`, the melting point was found to be 127 °C.
The result for `COC(=O)c1ccc(OCCNC(=O)C2Cc3ccccc3N2S(=O)(=O)c2ccc(-c3cc(C(F)(F)F)ccc3Cl)cc2)cc1F` (stereo unspecified) reads 84 to 85 °C; that for `Brc1ccccc1SSc1ccccc1Br`, 95 to 97 °C.
As to `CC(C)S(=O)(=O)c1cccc(OS(C)(=O)=O)n1`, the melting point fell in the range of 70.5 to 71.5 °C.
Take `CCCN1CCCC2c3nc(N)sc3CCC21` (stereo unspecified): the melting point lay within 163 to 181 °C.
The value for `COC(=O)c1c([N+](=O)[O-])cccc1S(N)(=O)=O` was 227 to 229 °C.
The result for `CN1C(=O)N(c2cc(F)ccc2F)C(=O)C1=Cc1ccccc1F` reads 94 to 97 °C; that for `O=c1[nH]c2cc(F)c(NCC3=CCCOC3)cc2o1`, 175 to 176 °C; that for `CCOP(=O)(Cc1cccc2cccc(CP(=O)(OCC)OCC)c12)OCC`, 55 to 56 °C.
As to `Nc1nc2c(s1)CC(NC(=O)[C@@H]1CCCN1C(=O)CNC(c1ccccc1)(c1ccccc1)c1ccccc1)CC2` (stereo partly specified), the melting point lay in the range of 125 to 128 °C.
`CCN(CC)C(=O)n1cc(C(=O)C2CSC(c3cccnc3)N2)c2ccccc21` (stereo unspecified) showed a melting point of 84 °C.
In the case of `CN1CCN=C1C(Br)(Br)[N+](=O)[O-]`, the melting point was 88 to 90 °C.
The result for `COc1cccc(C=N[C@H](C)c2ccc([N+](=O)[O-])cc2)c1O` reads 88 to 90 °C; that for `COc1cccc(Nc2n[nH]c3ncnc(Nc4cccc(Cl)c4)c23)c1`, 202 to 203 °C; that for `COc1ccc(C2(C#Cc3cnc(NC(C)=O)nc3)CCC(=O)CC2)cc1OC1CCCC1`, 170 to 171 °C.
`CCCCCCCCCCCCCCCCCCc1c(C(=O)OCC)[nH]c(C)c1C` came in with a melting point of 78 to 80 °C.
Take `c1ccc(CC2CNCCNCCNCCNCCN2)cc1` (stereo unspecified): the melting point fell in the range of 98 to 100 °C.
In the case of `CC(C)[C@H](NC(=O)OCc1ccccn1)C(=O)N[C@@H](Cc1ccccc1)C[C@H](O)[C@H](Cc1ccccc1)NC(=O)OCc1cncs1`, the melting point was 166 to 168 °C.
With `O=C(NCc1ccccc1)c1ccnc(N2CCN(CC3CC3)C2=O)c1`, the melting point was 121 to 123 °C.
The value for `CCOC(=O)C1=Cc2cc(Br)c(F)cc2OC1C(F)(F)F` (stereo unspecified) was 98.5 to 100 °C; that for `CC(C)Oc1ccc(-c2noc(-c3ccc(CN4CC(C(=O)O)C4)cc3)n2)cc1Cl` was 195 to 196 °C; that for `O=[N+]([O-])c1ccc(CSSCc2ccc([N+](=O)[O-])cc2)cc1` was 126 °C.
Compound `O=C(CCc1ccccc1[N+](=O)[O-])c1c(O)c2cccnc2n(-c2ccccc2)c1=O` showed a melting point of 238 to 240 °C.
With `CNC(=O)NS(=O)(=O)c1cc(CCNC(=O)C=Cc2ccc(OC)cc2OC)ccc1OC`, the melting point amounted to 210 °C.
For the compound `O=C(NCC1CC1)c1ccc(F)c2c1CC(N(CCCc1c[nH]c3ccc(F)cc13)C1CCC1)CO2` (stereo unspecified), the melting point is 114 °C.
For `Nc1nnc(-c2ccc(Cl)cc2)s1`, the melting point is 221 °C.
`Cc1cn(C2CC(N=[N+]=[N-])C(CO)O2)c(=O)nc1N` (stereo unspecified) displayed a melting point of 85 to 88 °C.
`Cc1sc2[nH]c(=O)c(=O)[nH]c2c1C`: the melting point is above 300 °C.
`Cc1cc(C=O)ccc1C(=O)NCC(F)(F)F`: the melting point fell in the range of 99 to 104 °C.
Compound `Cc1cc(F)cc2c1CC/C2=C\C(=O)O` came in with a melting point of 243 to 246 °C.
On to `O=c1cccc2c([N+](=O)[O-])cccc2n1`, for which the melting point was 139 to 141 °C.
In turn, `CN(C)C(=O)c1nc(-c2ccccc2)nc2[nH]c3cc(Cl)ccc3c12` had a melting point of 232 to 233 °C.
The compound `CN(C)c1ccc(CC(OCC(O)CN2CCCCC2)C(=O)c2ccccc2)cc1` (stereo unspecified) gave a melting point of 113 to 115 °C.
With `Cc1nn(C)c2cc(-c3ccc4nnn(Cc5ccc6ncccc6c5)c4n3)ccc12`, the melting point fell in the range of 159 to 163 °C.
Take `CC(=O)N1CCCCc2ccc(/C=C/CN(C)C)cc21`: the melting point lay within 87 to 88 °C.
`Cc1c(N)c(C)c2c(c1-c1ccccc1)OCC2c1ccc(C(C)C)cc1` (stereo unspecified) displayed a melting point of 101 to 102 °C.
`N#CC1C(=O)NC(=O)C(C(=O)O)C12CCCCC2` (stereo unspecified): the melting point lay in the range of 210 to 214 °C.
The result for `COc1cc(C(C)=O)ccc1OCCCCN1CCC(C(O)(c2ccc(F)cc2)c2ccc(F)cc2)CC1` reads 104 to 105 °C; that for `CCOP(=O)(OCC)C(Nc1nocc1C)P(=O)(OCC)OCC`, 68 to 69 °C.
As to `CN(C)Cc1c[nH]c2ccc(OCc3ccccc3)c(Cl)c12`, the melting point lay in the range of 137 to 139 °C.
With `CS(=O)(=O)N1CCSc2cccc(Cl)c2C1`, the melting point fell in the range of 85 to 86 °C.
The value for `O=C(O)c1c2c(nc3ccc(F)cc13)-c1ccc(-c3ccccc3C(F)(F)F)cc1CCC2` was above 300 °C.
`NC(=O)c1cc(-c2nccs2)[nH]c1C(CC1CCOCC1)c1ccc(S(=O)(=O)C2CC2)cc1` (stereo unspecified) came in with a melting point of 241 to 243 °C.
`CNC(=O)C1=CC(C)(COC)Oc2ccc([N+](=O)[O-])cc21` (stereo unspecified): the melting point fell in the range of 128 to 130 °C.
`CCOC(=O)/C=C/c1cn(Cc2ccc(OCc3nc(-c4ccco4)oc3C)cc2)nc1OCc1ccc(OCc2nc(-c3ccco3)oc2C)cc1` had a melting point of 138 to 139 °C.
On to `CCCc1c(OCCCCCOc2ccc3ccc(OCC(=O)O)cc3c2CCC(=O)O)ccc2c1OCCC2=O`, for which the melting point lay within 175 to 178 °C.
`COc1cc2c(cc1OC)C(c1c(Cl)cccc1Cl)NC(=O)C2` (stereo unspecified) registered a melting point of 228 to 229 °C.
The result for `Cc1ccc(C2(Br)C(=O)NC(=O)NC2=O)cc1` reads 210 to 213 °C; that for `CCN(CC)C(=O)N1CCc2ccc(S(=O)(=O)NC(=O)NC3CCCCC3)cc2CC1`, 168 to 169 °C.
`CC(C)=CCCC(C)=CCOc1ccc(OCC=C(C)CCC=C(C)C)c(C(=O)NCCc2ccncc2)c1` had a melting point of 59.1 to 60.6 °C.
In the case of `O=c1nc(N(CCO)c2ccccc2)sc2ncccc12`, the melting point is 168 to 169 °C.
In the case of `COc1ccc2cc([C@H](C)C(=O)NN)ccc2c1`, the melting point is 106 to 108 °C.
The result for `Cn1c(=O)c(-c2c(Cl)cccc2Cl)cc2cnc(Nc3cccnc3)nc21` reads 247 to 248 °C; that for `CCCCSc1ccc(-c2cc3ccccc3[nH]2)cc1`, 189 to 191 °C; that for `N#Cc1ccc2[nH]c(C(N)=O)cc2c1`, above 300 °C.
In the case of `CCON=C(C)c1ccc2c(c1)ncn2-c1cccc(COCc2ncnn2C)c1`, the melting point fell in the range of 130 to 134 °C.
In turn, `COc1ccc(COC(=O)Nc2cc(-n3cccn3)nc(-c3ccco3)n2)cc1OC` displayed a melting point of 148 °C.
In turn, `COc1cc2c(cc1OC)C(c1ccccc1)N(C(=O)NCCN(C)C)CC2` (stereo unspecified) gave a melting point of 60 °C.
Regarding `Cc1c(F)cc(C(=O)O)cc1-c1ccc(C(=O)NCC(C)(C)C)cc1C(=O)Nc1nccs1`, the melting point was in the range of 196 to 200 °C.
Compound `COC(=O)c1cc(Cl)c(C(=O)OC)cc1Cl` had a melting point of 134 to 135 °C.
The value for `Cc1ccc(S(=O)(=O)Oc2ccc(C=O)cc2OS(=O)(=O)c2ccc(C)cc2)cc1` was 95 to 97 °C; that for `CCc1c(N2CCC(C(N)c3ccccn3)C2)c(F)c(N)c2c(=O)c(C(=O)O)cn(C3CC3F)c12` (stereo unspecified) was 127 to 129 °C; that for `CN(C)C(=O)C(C#N)=C(OC(=O)c1ccc(Cl)cc1[N+](=O)[O-])c1ccc(Cl)cc1[N+](=O)[O-]` was 137 to 146 °C.
The value for `Clc1ncccc1OCC1CO1` (stereo unspecified) was 132 °C.
Take `CS(=O)(=O)c1ccc(-c2cc(-c3csc(N)n3)sc2-c2ccc(F)cc2)cc1`: the melting point was 243 to 245 °C.
In the case of `CCc1oc(C(c2ccccc2)c2ccccc2)nc1CC1CCc2c(cccc2OCC(=O)O)C1` (stereo unspecified), the melting point lay in the range of 150 to 152 °C.
The result for `CCc1ccc(C(=O)c2ccc(F)cc2)c(O)c1` reads 44 to 48 °C; that for `CCOC(=O)C1(Sc2ccccc2[N+](=O)[O-])Cc2ccc(N(C)C)cc2NC1=O` (stereo unspecified), 174 to 176 °C; that for `Cc1cc(C)c(S(=O)(=O)NCCCCNS(=O)(=O)c2c(C)cc(C)cc2C)c(C)c1`, 156 to 158 °C.
For the compound `O=C(O)CCCc1cc2cc(Cl)ccc2n1S(=O)(=O)c1ccc2ncsc2c1`, the melting point was 74 to 80 °C.
Take `CCCCc1nn2cc(CC)nc2n1Cc1ccc(-c2ccccc2-c2nnn[nH]2)cc1`: the melting point was above 100 °C.
`COc1ccc2[nH]c(SCc3ncc(Br)c(N4CCCCC4)c3C)nc2c1` gave a melting point of 90 to 92 °C.
`CCCN1CCC23c4cccc(O)c4OC2C2CCC3(C1)C(COC)C2` (stereo unspecified) returned a melting point of 130 to 131 °C.
`C=CCNC(=O)NCC1Cc2ccc(-c3ccc(=O)[nH]n3)cc2C1` (stereo unspecified) showed a melting point of 208 to 209 °C.
Compound `CCOC(=O)c1c(N2CCN(C)CC2)c2cnc(-c3ccccc3)nc2n(CC)c1=O` returned a melting point of 180 to 185 °C.
In turn, `CNC(=O)C1(CCC#N)c2ccccc2-c2ccccc21` gave a melting point of 185 to 187 °C.
With `Nc1nc2ccccc2c2c1ncn2COCc1ccccc1`, the melting point was 168 to 172 °C.
The value for `CC(C)N(N)C(=O)N1CCCC1C(=O)OC(C)(C)C` (stereo unspecified) was 87 to 91 °C; that for `CCCCCCCCCCCCCCOc1cc(-c2ccccc2)c(OCC(=O)O)c(-c2ccccc2)c1` was 89 to 90 °C; that for `CCCCNc1cc(CN)cc(S(N)(=O)=O)c1Oc1ccccc1` was 195 to 198 °C.
The result for `CCn1c2s[nH]c(=O)c2c(=O)c2cc(F)c(F)c(OC(F)F)c21` reads 211 to 213 °C.
`NC(=NO)c1ccc(C(=O)O)cn1`: the melting point is above 300 °C.
With `CCCOc1ccc(NC=C(C(=O)OCC)C(=O)OCC)cc1C1=NC(=O)C2=NN=NC2=N1`, the melting point was in the range of 226 to 227 °C.
Take `O=C1C(=O)c2ccc(F)cc2C2=C1SCC1(CCN(CC(O)Cc3ccccc3)CC1)O2` (stereo unspecified): the melting point was 76 to 77 °C.
